Measurements as given in paper PMC9090415, “Discovery of small molecule inhibitors of Plasmodium falciparum apicoplast DNA polymerase” (Journal of Enzyme Inhibition and Medicinal Chemistry, 2022).
pIC50: −log10 of the molar value.

Target: P. falciparum apicoplast DNA polymerase (Pf-apPOL) (Plasmodium falciparum, UniProt Q8ILY1)
Experiment: Fluorescence-based high-throughput DNA polymerase assay (molecular beacon), primary screen and dose-response
Type: biochemical
Settings: for DNA Pol: 90 min, 10 µM; for pIC50: supplemental file 2, sheet IC50 nontoxic compounds, Pf-apPOL
Procedure: The HT assay employs a molecular beacon, a stem-loop DNA template with a Cy3 dye and the Black Hole Quencher on the 3′ and 5′ ends of the DNA, respectively. Pf-apPOL concentration is based on a calculated absorptivity of ε280 = 56750 M^−1 cm^−1. Reactions were carried out at 25 °C, using Corning 3575 […] (well-volume, 20 µL). Assays testing for compound inhibition composed of reaction buffer (pH 7.9 in 50 mM potassium acetate, 20 mM Tris-acetate and 10 mM magnesium acetate), Pf-apPOL (20 nM), DNA substrate (20 nM), dNTPs (6 µM), and compound (10 µM in DMSO). The DNA and nucleotide substrates (dNTPs) were at concentrations of 20 nM and 6 µM, respectively, in the assay. Pf-apPOL was incubated in the reaction buffer with dNTPs and the compound of interest (10 µM, in the assay) at 25 °C for 10 min. The DNA substrate was then added and the reaction was allowed to proceed for 90 min at 25 °C.
Each assay plate contained 16 negative controls (no Pf-apPOL, DMSO present) and 16 positive controls (Pf-apPOL present, no DMSO). The fluorescence of each well was determined using a BioTek Synergy Neo fluorescence plate reader using excitation and emission wavelengths of 555 and 570 nm, respectively.
In the above, Min is the average of fluorescence emission of the negative controls (substrate only), Max the average fluorescence emission from the positive controls (enzyme + substrate), and Test the emission from the assays in the presence of compounds (enzyme + compound + substrates). […] […] The IC50 of each compound was determined using Equation (2): (2) IC50= Vmax/(1+ (I/IC50)^n)
In the above, n measures cooperativity, with n > 1 indicating synergistic binding of more than a single molecule of the compound.
To identify apPOL inhibitors we utilised our previously developed high-throughput DNA polymerase assay. The HT assay is based on a molecular beacon DNA template that forms a stem-loop with a Cy3 dye and the Black Hole Quencher on the 3′ and 5′ ends of the DNA, respectively. DNA polymerase activity extends an annealed primer through the stem region, displacing the fluorophore from the quencher, thereby increasing its fluorescence (Figure 1(A)). The assay accurately recapitulates the kinetic behaviour of apPOL, as measured through more conventional low-throughput gel-based assays. The Z′ factor for the assay described here was 0.9 across all plates (data not shown).
Figure 1. High-throughput screening. (A) The fluorescent-based DNA polymerase assay used to screen the compound libraries. The DNA template strand is a hairpin loop with a primer annealed to the loop. The 3’ end of the primer is 11 bases away from the 6 bp duplex. Strand displacement activity of the DNA polymerase separates the Cy3 dye from the Black hole quencher leading to an increase in fluorescent signal. (B) The high-throughput assay workflow. The DNA polymerase is incubated with […] compound for 10 min prior to addition of the hairpin substrate. The reaction is quenched at 3 different time points and the fluorescent signal is measured and % inhibition is determined using the provided equation.

Chain of P. falciparum apicoplast DNA polymerase (Pf-apPOL) (Q8ILY1 entry or part of it): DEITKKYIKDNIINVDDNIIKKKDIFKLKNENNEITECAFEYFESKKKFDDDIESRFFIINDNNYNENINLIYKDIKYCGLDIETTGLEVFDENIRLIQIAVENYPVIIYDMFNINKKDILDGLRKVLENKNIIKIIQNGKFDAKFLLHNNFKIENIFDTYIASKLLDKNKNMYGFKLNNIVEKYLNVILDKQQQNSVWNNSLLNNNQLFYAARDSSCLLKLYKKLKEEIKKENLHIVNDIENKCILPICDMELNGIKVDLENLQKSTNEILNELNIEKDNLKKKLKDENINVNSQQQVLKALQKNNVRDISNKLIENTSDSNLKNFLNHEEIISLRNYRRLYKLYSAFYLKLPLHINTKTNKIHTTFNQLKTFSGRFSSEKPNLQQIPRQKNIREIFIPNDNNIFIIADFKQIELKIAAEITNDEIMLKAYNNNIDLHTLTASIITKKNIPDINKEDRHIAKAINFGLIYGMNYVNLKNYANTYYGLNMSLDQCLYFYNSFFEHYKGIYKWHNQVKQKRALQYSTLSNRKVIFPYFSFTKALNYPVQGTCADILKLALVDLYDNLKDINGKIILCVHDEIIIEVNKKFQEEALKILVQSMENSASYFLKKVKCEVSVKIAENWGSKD

O=C(CSc1nnc(-c2ccncc2)[nH]1)c1ccc(O)c(O)c1 [Molecule 89, O=C(c1ccc(c(c1)O)O)CSc1nnc([nH]1)c1ccncc1]
% inhibition Apo pol 10' (DRC-1, concentration 2.5): 60.0938% | % inhibition Apo pol 10' (DRC-1, concentration 5): 82.0224% | % inhibition Apo pol 10' (DRC-1, concentration 10): 88.031% | % inhibition Apo pol 10' (DRC-1, concentration 20): 91.1846% | % inhibition Apo pol 10' (DRC-1, concentration 40): 93.0486% | % inhibition Apo pol 10' (DRC-1, concentration 80): 94.9385% | % inhibition Apol 90' (DRC-1, concentration 2.5): 43.8309% | % inhibition Apol 90' (DRC-1, concentration 5): 70.0142% | % inhibition Apol 90' (DRC-1, concentration 10): 80.3522% | % inhibition Apol 90' (DRC-1, concentration 20): 84.6554% | % inhibition Apol 90' (DRC-1, concentration 40): 86.229% | % inhibition Apol 90' (DRC-1, concentration 80): 90.5693% | % inhibition apPOL 180' (DRC-1, concentration 2.5): 29.303% | % inhibition apPOL 180' (DRC-1, concentration 5): 56.5831% | % inhibition apPOL 180' (DRC-1, concentration 10): 70.7438% | % inhibition apPOL 180' (DRC-1, concentration 20): 76.8269% | % inhibition apPOL 180' (DRC-1, concentration 40): 78.119% | % inhibition apPOL 180' (DRC-1, concentration 80): 84.9374% | % inhibition Apo pol 5' (DRC-2, concentration 2.5): 47% | % inhibition Apo pol 5' (DRC-2, concentration 5): 49% | % inhibition Apo pol 5' (DRC-2, concentration 10): 52% | % inhibition Apo pol 5' (DRC-2, concentration 20): 53% | % inhibition Apo pol 5' (DRC-2, concentration 40): 57% | % inhibition Apo pol 5' (DRC-2, concentration 80): 58% | % inhibition Apol 40' (DRC-2, concentration 2.5): 53% | % inhibition Apol 40' (DRC-2, concentration 5): 62% | % inhibition Apol 40' (DRC-2, concentration 10): 68% | % inhibition Apol 40' (DRC-2, concentration 20): 71% | % inhibition Apol 40' (DRC-2, concentration 40): 76% | % inhibition Apol 40' (DRC-2, concentration 80): 78% | % inhibition ApPOL 90' (DRC-2, concentration 2.5): 50% | % inhibition ApPOL 90' (DRC-2, concentration 5): 62% | % inhibition ApPOL 90' (DRC-2, concentration 10): 69% | % inhibition ApPOL 90' (DRC-2, concentration 20): 73% | % inhibition ApPOL 90' (DRC-2, concentration 40): 78% | % inhibition ApPOL 90' (DRC-2, concentration 80): 80% | % inhibition apPOL 180' (DRC-2, concentration 2.5): 34% | % inhibition apPOL 180' (DRC-2, concentration 5): 53% | % inhibition apPOL 180' (DRC-2, concentration 10): 63% | % inhibition apPOL 180' (DRC-2, concentration 20): 68% | % inhibition apPOL 180' (DRC-2, concentration 40): 76% | % inhibition apPOL 180' (DRC-2, concentration 80): 80% | % inhibition Apol 40' (conc. 2.5, DRC-2): 53% | % inhibition Apol 40' (conc. 5, DRC-2): 62% | % inhibition ApPOL 90' (conc. 5, DRC-2): 62% | % inhibition apPOL 180' (conc. 5, DRC-2): 53% | % inhibition Apol 40' (conc. 10, DRC-2): 68% | % inhibition Apo pol 5' (conc. 20, DRC-2): 53% | % inhibition apPOL 180' (conc. 20, DRC-2): 68% | % inhibition Apol 40' (conc. 40, DRC-2): 76% | % inhibition ApPOL 90' (conc. 40, DRC-2): 78% | % inhibition apPOL 180' (conc. 40, DRC-2): 76% | % inhibition Apol 40' (conc. 80, DRC-2): 78% | % inhibition ApPOL 90' (conc. 80, DRC-2): 80% | % inhibition apPOL 180' (conc. 80, DRC-2): 80% | DNA Pol (primary screen value by plate and well): 90 | DNA Pol (primary screen value of the 186 hits, unit not given): 90

CCCCc1ccc(NC(=O)CSc2nc(O)c(C#N)c(C3CCCCC3)n2)c(C)c1 [Molecule 8]
pIC50: 5.06

COc1ccc(-c2cc3nc4c(c(=O)n3[nH]2)CCN(C(=O)CCc2ccccc2)C4)cc1 [Molecule 17]
pIC50: 5.15

COc1ccc(C(=O)N2CCc3c(nc4cc(-c5ccccc5Cl)[nH]n4c3=O)C2)cn1 [Molecule 26]
pIC50: 5.02
